Data reported in patent US4458079A, “Sulfur-containing imidazoles” (Bristol-Myers Company, priority 1980, dated 1984).
≈ marks a conversion by molar mass, not a printed value.

What was measured:
Type in all cases: cell-based
[1] = system: Candida albicans; assay: MIC in Sabouraud broth plus 1% ionagar (agar dilution); conditions: 24 h, read-out: Minimum Inhibitory Concentration (MIC)
Description: (§1) The antifungal activity of some of the compounds of Formula I against a number of human and animal pathogenic fungi is given in Table I for either a liquid medium (Sabouraud broth) or an agar medium (Sabouraud broth plus 1% ionagar). Two-fold serial dilutions were made with Sabouraud's liquid medium from stock solutions of the test compounds, usually in dimethyl sulfoxide, N,N-dimethylformamide or water. The Minimum Inhibitory Concentrations (MIC's), which were considered to be the minimum concentrations of the test compounds in micrograms per milliliter which prevent grossly detectable growth of the test organisms, were then determined after inoculation of the medicated broths with the test organisms, and incubation at the appropriate temperature and for the appropriate time interval. Candida species were incubated for 24 hours at 37°, while the dermatophytes Trichophyton rubrum, Trichophyton mentagrophytes and Microsporum canis were incubated for five days at 28°. The agar dilution assay was essentially the same as the broth dilution assay except that 1% inoagar was added to the Sabouraud broth.

[2] = system: Candida krusei; assay: as above; conditions: Pichia kudriavzevii, strain A 15052, 24 hours at 37°, read-out: Minimum Inhibitory Concentration (MIC)
Description: as §1

[3] = system: Candida tropicalis; assay: as above; conditions: strain A 15051, 24 hours at 37°, read-out: Minimum Inhibitory Concentration (MIC)
Description: as §1

[4] = system: Microsporum canis; assay: as above; conditions: 120 h, read-out: Minimum Inhibitory Concentration (MIC)
Description: as §1

[5] = system: Trichophyton mentagrophytes; assay: as above; conditions: 120 h, strain A 9870, five days at 28°, read-out: Minimum Inhibitory Concentration (MIC)
Description: as §1

[6] = system: Trichophyton rubrum; assay: as above; conditions: 120 h, strain A 22789, five days at 28°, read-out: Minimum Inhibitory Concentration (MIC)
Description: as §1

[7] = system: Candida albicans; assay: MIC in Sabouraud broth (broth dilution); conditions: 24 h, read-out: Minimum Inhibitory Concentration (MIC)
Description: as §1

[8] = system: Candida krusei; assay: MIC in Sabouraud broth (broth dilution); conditions: Pichia kudriavzevii, strain A 15052, 24 hours at 37°, read-out: Minimum Inhibitory Concentration (MIC)
Description: as §1

[9] = system: Candida tropicalis; assay: MIC in Sabouraud broth (broth dilution); conditions: strain A 15051, 24 hours at 37°, read-out: Minimum Inhibitory Concentration (MIC)
Description: as §1

[10] = system: Microsporum canis; assay: MIC in Sabouraud broth (broth dilution); conditions: 120 h, read-out: Minimum Inhibitory Concentration (MIC)
Description: as §1

[11] = system: Trichophyton mentagrophytes; assay: MIC in Sabouraud broth (broth dilution); conditions: 120 h, strain A 9870, five days at 28°, read-out: Minimum Inhibitory Concentration (MIC)
Description: as §1

[12] = system: Trichophyton rubrum; assay: MIC in Sabouraud broth (broth dilution); conditions: 120 h, strain A 22789, five days at 28°, read-out: Minimum Inhibitory Concentration (MIC)
Description: as §1

[13] = strain A 15049, 24 hours at 37°
[14] = strain A 9872, five days at 28°
[15] = strain A 22494, five days at 28°

| Structure (SMILES) | MIC ([1]; strain A 1505, 24 hours at 37°) [mg/L] | MIC ([1]; strain A 9540, 24 hours at 37°) [mg/L] | MIC [1, 13] [mg/L] | MIC [2] [mg/L] | MIC [3] [mg/L] | MIC [4, 14] [mg/L] | MIC [4, 15] [mg/L] | MIC [5] [mg/L] | MIC [6] [mg/L] | MIC ([7]; strain A 1505, 24 hours at 37°) [mg/L] | MIC ([7]; strain A 9540, 24 hours at 37°) [mg/L] | MIC [7, 13] [mg/L] | MIC [8] [mg/L] | MIC [9] [mg/L] | MIC [10, 14] [mg/L] | MIC [10, 15] [mg/L] | MIC [11] [mg/L] | MIC [12] [mg/L] |
| --- | --- | --- | --- | --- | --- | --- | --- | --- | --- | --- | --- | --- | --- | --- | --- | --- | --- | --- |
| Clc1cccc(Cl)c1CSC(Cn1ccnc1)SCc1c(Cl)cccc1Cl.O=C(O)C(=O)O [2(h), 1-[2,2-bis(2,6-dichlorobenzylthio)ethyl]-1H-imidazole hydrogen oxalate] | 16 | 8 | 16 | 32 | 63 | 1 | 0.25 | 1 | 0.5 | – | – | – | – | – | – | – | – | – |
| Cl.Clc1ccc(CSC(Cn2ccnc2)Sc2ccc(Cl)cc2)cc1 (stereo not drawn) [Example 5, 1-[2-(4-Chlorobenzylthio)-2-(4-chlorophenylthio)ethyl]-1H-imidazole Hydrochloride] | 4 | 4 | 4 | 4 | 32 | 0.25 | 0.032 | 0.063 | 0.25 | – | – | – | – | – | – | – | – | – |
| CSc1ccc(CSC(Cn2ccnc2)SCc2ccc(SC)cc2)cc1.Cl [2(l), 1-[2,2-bis(4-methylthiobenzylthio)ethyl]-1H-imidazole hydrochloride] | – | – | – | – | – | – | – | – | – | > 16 | > 16 | > 16 | 8 | > 16 | 0.063 | 0.13 | 0.063 | 0.063 |
| Cc1ccc(CSC(Cn2ccnc2)SCc2ccc(C)cc2)cc1.Cl [2(j), 1-[2,2-bis(4-methylbenzylthio)ethyl]-1H-imidazole hydrochloride] | – | – | – | – | – | – | – | – | – | 4 | 4 | 4 | 8 | > 16 | 0.063 | 0.063 | 0.063 | 0.063 |

More lines, now with the values ahead:

| MIC ([1]; strain A 1505, 24 hours at 37°) [mg/L] | MIC ([1]; strain A 9540, 24 hours at 37°) [mg/L] | MIC [1, 13] [mg/L] | MIC [2] [mg/L] | MIC [3] [mg/L] | MIC [4, 14] [mg/L] | MIC [4, 15] [mg/L] | MIC [5] [mg/L] | MIC [6] [mg/L] | MIC ([7]; strain A 1505, 24 hours at 37°) [mg/L] | MIC ([7]; strain A 9540, 24 hours at 37°) [mg/L] | MIC [7, 13] [mg/L] | MIC [8] [mg/L] | MIC [9] [mg/L] | MIC [10, 14] [mg/L] | MIC [10, 15] [mg/L] | MIC [11] [mg/L] | MIC [12] [mg/L] | Structure (SMILES) |
| --- | --- | --- | --- | --- | --- | --- | --- | --- | --- | --- | --- | --- | --- | --- | --- | --- | --- | --- |
| 4 | 4 | 4 | 8 | 125 | 0.25 | 0.032 | 0.5 | 0.5 | – | – | – | – | – | – | – | – | – | Cl.Clc1ccc(CSC(Cn2ccnc2)SCc2ccc(Cl)s2)s1 [2(p), 1-[2,2-bis(5-chloro-2-thienylmethylthio)ethyl]-1H-imidazole hydrochloride] |
| – | – | – | – | – | – | – | – | – | > 16 | > 16 | > 16 | > 16 | > 16 | 0.032 (≈ 0.0669 µM) | 0.063 (≈ 0.132 µM) | 0.063 (≈ 0.132 µM) | 0.063 (≈ 0.132 µM) | Clc1ccc(CSC(Cn2ccnc2)SCc2ccc(Cl)cc2Cl)c(Cl)c1 [2(g), 1-[2,2-bis(2,4-dichlorobenzylthio)ethyl]-1H-imidazole] |
| – | – | – | – | – | – | – | – | – | 2 | 1 | 2 | 0.5 | > 16 | 0.032 | 0.063 | 0.032 | 0.063 | Cl.Clc1ccc(CSC(Cn2ccnc2)SCc2ccc(Cl)cc2)cc1 [Example 1, 1-[2,2-Bis(4-chlorobenzylthio)ethyl]-1H-imidazole Hydrochloride] |
